We go through 2 compounds from ChEMBL document CHEMBL4706545, “Antiproliferative effect of mitochondria-targeting allobetulin 1,2,3-triazolium salt derivatives and their mechanism of inducing apoptosis of cancer cells” (Eur J Med Chem, 2020).

Experiment [1] relates to ECa-109 cell line. The experiment can be described thus: Induction of apoptosis in human ECa-109 cells assessed as late apoptotic cells at 4 uM incubated for 48 hrs by annexin-V-FITC and PI staining based fluorescence microscopic analysis (reference value: 2.01 %). The format is functional.
Experiment [2] concerns ECa-109 cell line. The experiment can be described thus: Induction of apoptosis in human ECa-109 cells assessed as late apoptotic cells incubated for 48 hrs by annexin-V-FITC and PI staining based fluorescence microscopic analysis. The format is functional, cell-based. As to conditions: dose 1-4 µM.
For experiment [3], the system named is ECa-109 cell line. Briefly: Induction of mitochondrial membrane potential disruption in human ECa-109 cells incubated for 48 hrs by JC-1 dye based flow cytometry analysis. Particulars: Mitochondria, dose 1-4 µM.
The test system of experiment [4] is ECa-109 cell line. Briefly: Induction of ROS generation in human […] cells incubated for 48 hrs by DCFH-DA staining based fluorescence microscopic analysis. The format is functional. Particulars: dose 1-4 µM.
Experiment [5] deals with ECa-109 cell line. Briefly: Induction of ROS-mediated apoptosis in human ECa-109 cells assessed as viable cells at 1 uM incubated for 48 hrs by annexin V-PE and 7-AAD staining based flow cytometry analysis (reference value: 92.7 %). It is filed as functional. Particulars: read-out: Activity. For orientation: A flow cytometer gives signals particle by particle.
The test system of experiment [6] is ECa-109 cell line. The experiment can be described thus: Induction of ROS-mediated apoptosis in human ECa-109 cells assessed as viable cells at 4 uM incubated for 48 hrs by annexin V-PE and 7-AAD staining based flow cytometry analysis (reference value: 92.7 %). The format is functional. As to conditions: read-out: Activity.
The subject of experiment [7] is ECa-109 cell line. The experiment can be described thus: Induction of ROS-mediated apoptosis in human ECa-109 cells assessed as early apoptotic cells at 4 uM incubated for 48 hrs by annexin V-PE and 7-AAD staining based flow cytometry analysis (reference value: 2.70 %). The format is functional.
The test system of experiment [8] is ECa-109 cell line. The experiment can be described thus: Induction of ROS-mediated apoptosis in human ECa-109 cells assessed as late apoptotic cells at 4 uM incubated for 48 hrs by annexin V-PE and 7-AAD staining based flow cytometry analysis (reference value: 3.89 %). The format is functional.
Experiment [9] relates to ECa-109 cell line. Briefly: Induction of ROS-mediated apoptosis in human ECa-109 cells assessed as viable cells at 1 uM incubated for 48 hrs in presence of NAC by annexin V-PE and 7-AAD staining based flow cytometry analysis (reference value: 94 %). The format is functional. As to conditions: read-out: Activity.
Experiment [10] concerns ECa-109 cell line. The experiment can be described thus: Induction of ROS-mediated apoptosis in human ECa-109 cells assessed as viable cells at 2 uM incubated for 48 hrs in presence of NAC by annexin V-PE and 7-AAD staining based flow cytometry analysis (reference value: 94 %). The format is functional. Particulars: read-out: Activity.
For experiment [11], the system named is ECa-109 cell line. Briefly: Induction of ROS-mediated apoptosis in human ECa-109 cells assessed as early apoptotic cells at 2 uM incubated for 48 hrs in presence of NAC by annexin V-PE and 7-AAD staining based flow cytometry analysis (reference value: 1.90 %). It is filed as functional.
Experiment [12] relates to ECa-109 cell line. The experiment can be described thus: Induction of ROS-mediated apoptosis in human ECa-109 cells assessed as late apoptotic cells at 2 uM incubated for 48 hrs in presence of NAC by annexin V-PE and 7-AAD staining based flow cytometry analysis (reference value: 2.98 %). It is filed as functional.
The subject of experiment [13] is ECa-109 cell line. Briefly: Induction of cell cycle arrest in human ECa-109 cells assessed as accumulation in G2/M phase at 1 uM incubated for 48 hrs by PI staining based flow cytometry analysis (reference value: 8.39 %). It is filed as functional.
For experiment [14], the system named is ECa-109 cell line. The experiment can be described thus: Induction of apoptosis in human ECa-109 cells assessed as decrease in caspase-9 incubated for 48 hrs by Western blot analysis. It is filed as functional, cell-based. As to conditions: dose 1-4 µM. In general terms: A western blot detects proteins with antibodies after separation by electrophoresis.

Experiment [15] has as its system ECa-109 cell line. The experiment can be described thus: Induction of apoptosis in human ECa-109 cells assessed as downregulation of Bcl-2 incubated for 48 hrs by Western blot analysis. It is filed as functional, cell-based. As to conditions: dose 1-4 µM.
Experiment [16] concerns ECa-109 cell line. The experiment can be described thus: Induction of apoptosis in human ECa-109 cells assessed as upregulation of Bax incubated for 48 hrs by Western blot analysis. It is filed as functional, cell-based. Particulars: dose 1-4 µM.
Experiment [17] has as its system SGC-7901. Briefly: Induction of apoptosis in human SGC-7901 cells assessed as viable cells at 4 uM incubated for 48 hrs by annexin-V-FITC and PI staining based fluorescence microscopic analysis (reference value: 93.8 %). The format is functional. Particulars: read-out: Activity.
Experiment [18] relates to SGC-7901. The experiment can be described thus: Induction of apoptosis in human SGC-7901 cells assessed as early apoptotic cells at 4 uM incubated for 48 hrs by annexin-V-FITC and PI staining based fluorescence microscopic analysis (reference value: 1.87 %). It is filed as functional.
For experiment [19], the system named is SGC-7901. Briefly: Induction of ROS-mediated apoptosis in human SGC-7901 cells assessed as viable cells at 2 uM incubated for 48 hrs by annexin V-PE and 7-AAD staining based flow cytometry analysis (reference value: 93.6 %). The format is functional. Particulars: read-out: Activity.
Experiment [20] concerns SGC-7901. The experiment can be described thus: Induction of ROS-mediated apoptosis in human SGC-7901 cells assessed as viable cells at 4 uM incubated for 48 hrs by annexin V-PE and 7-AAD staining based flow cytometry analysis (reference value: 93.6 %). The format is functional. As to conditions: read-out: Activity.
Experiment [21] deals with SGC-7901. Briefly: Induction of ROS-mediated apoptosis in human SGC-7901 cells assessed as early apoptotic cells at 1 uM incubated for 48 hrs in presence of NAC by annexin V-PE and 7-AAD staining based flow cytometry analysis (reference value: 1.15 %). The format is functional.
Experiment [22] has as its system SGC-7901. Briefly: Induction of ROS-mediated apoptosis in human SGC-7901 cells assessed as necrotic cells at 4 uM incubated for 48 hrs in presence of NAC by annexin V-PE and 7-AAD staining based flow cytometry analysis (reference value: 0.623 %). The format is functional.
Experiment [23] concerns SGC-7901. Briefly: Induction of cell cycle arrest in human SGC-7901 cells assessed as accumulation in G2/M phase at 1 uM incubated for 48 hrs by PI staining based flow cytometry analysis (reference value: 11.48 %). The format is functional.
Experiment [24] has as its system SGC-7901. Briefly: Induction of cell cycle arrest in human SGC-7901 cells assessed as accumulation in G0/G1 phase at 2 uM incubated for 48 hrs by PI staining based flow cytometry analysis (reference value: 57.39 %). The format is functional.
Experiment [25] relates to SGC-7901. Briefly: Induction of cell cycle arrest in human SGC-7901 cells assessed as accumulation in S phase at 4 uM incubated for 48 hrs by PI staining based flow cytometry analysis (reference value: 31.13 %). The format is functional.
Experiment [26] concerns SGC-7901. Briefly: Induction of apoptosis in human SGC-7901 cells assessed as downregulation of Bcl-2 incubated for 48 hrs by Western blot analysis. It is filed as functional, cell-based. Particulars: dose 1-4 µM.
The subject of experiment [27] is SGC-7901. Briefly: Induction of apoptosis in human SGC-7901 cells assessed as downregulation of Bcl-xl incubated for 48 hrs by Western blot analysis. The format is functional, cell-based. As to conditions: dose 1-4 µM.
Experiment [28] relates to ECa-109 cell line. The experiment can be described thus: Induction of apoptosis in human ECa-109 cells assessed as decrease in PARP incubated for 48 hrs by Western blot analysis. It is filed as functional, cell-based. Particulars: dose 1-4 µM.

For `COc1ccccc1Cn1n[n+](C)c2c1C(C)(C)[C@@H]1CC[C@]3(C)[C@H](CC[C@@H]4[C@H]5[C@H]6OC[C@@]5(CCC6(C)C)CC[C@]43C)[C@@]1(C)C2.[I-]`, the Activity in the experiment on ECa-109 cell line [1] is 92.2%; with ECa-109 cell line [2], “Dose-dependent effect”; with ECa-109 cell line [3], “Dose-dependent effect”; in the experiment on ECa-109 cell line [4] it was “Dose-dependent effect”; with ECa-109 cell line [7] it was 2%; in the experiment with ECa-109 cell line [8] it was 95%. Moreover, the Activity with ECa-109 cell line [11] is 10.1%; with ECa-109 cell line [12], 18.2%; in the experiment on ECa-109 cell line [13], 10.81%; with ECa-109 cell line [14] it was “Dose-dependent effect”; in the experiment with ECa-109 cell line [15] it was “Dose-dependent effect”; with ECa-109 cell line [16] it was “Dose-dependent effect”. In addition, the viability at 1 µM with ECa-109 cell line [5] turned out to be 66.9%; with ECa-109 cell line [9], 76.2%. Moreover, in the experiment on ECa-109 cell line [6], the viability at 4 µM was 0.811%. Further, in the experiment with ECa-109 cell line [10], the viability at 2 µM worked out at 66.2%.

Regarding `C[n+]1nn(Cc2c(F)cccc2Cl)c2c1C[C@]1(C)[C@H]3CC[C@@H]4[C@H]5[C@H]6OC[C@@]5(CCC6(C)C)CC[C@@]4(C)[C@]3(C)CC[C@H]1C2(C)C.[I-]`, the viability at 4 µM turned out to be 0.494% with SGC-7901 [17] and 0.152% with SGC-7901 [20]. The Activity is given as 2.07% with SGC-7901 [18]; 6.13% with SGC-7901 [21]; 2.66% in the experiment with SGC-7901 [22]; 5.39% in the experiment with SGC-7901 [23]; 74.64% with SGC-7901 [24]; 22.27% with SGC-7901 [25]. Also, the Activity result in the experiment with SGC-7901 [26], with SGC-7901 [27] and with ECa-109 cell line [28] was “Dose-dependent effect” throughout. Also, the viability at 2 µM in the experiment on SGC-7901 [19] amounted to 60.2%.
